One test addresses T1, M1 mAChR WT (Homo sapiens, UniProt P11229).
T1 construct: expressed in transfected cells
T1 sequence (P11229 1-460): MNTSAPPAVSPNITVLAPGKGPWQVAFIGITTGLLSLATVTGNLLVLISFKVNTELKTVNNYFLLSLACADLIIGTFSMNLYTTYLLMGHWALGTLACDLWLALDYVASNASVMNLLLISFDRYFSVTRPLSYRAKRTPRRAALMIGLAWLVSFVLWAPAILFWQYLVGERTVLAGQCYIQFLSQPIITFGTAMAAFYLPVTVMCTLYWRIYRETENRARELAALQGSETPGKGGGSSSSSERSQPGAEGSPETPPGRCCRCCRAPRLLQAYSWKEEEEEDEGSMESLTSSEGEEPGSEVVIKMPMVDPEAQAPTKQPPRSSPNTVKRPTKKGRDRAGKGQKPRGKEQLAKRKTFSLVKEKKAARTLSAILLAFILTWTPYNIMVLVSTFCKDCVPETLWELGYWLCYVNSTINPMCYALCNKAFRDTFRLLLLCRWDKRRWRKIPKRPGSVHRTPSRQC
Format: binding. The procedure: (§1) Flp-In Chinese hamster ovary (CHO) (Thermo Fisher Scientific) cells stably expressing mAChR WTs or mutant constructs were cultured in Dulbecco’s modified Eagle’s medium (DMEM, Invitrogen) containing 5% foetal bovine serum (FBS; ThermoTrace) and […] of hygromycin (Roche) in a humidified incubator (37 °C, 5% CO2). Upon reaching confluence, media was removed, cells were washed with phosphate buffered saline (PBS) and harvested from tissue culture flasks using versene (PBS with 0.2 g EDTA). Cells were then pelleted through centrifugation at 350 × g for three minutes followed by resuspension in DMEM + 5% FBS. Cells were then either plated for an assay or reseeded into a tissue culture flask.

The next test deals with T2, M4 mAChR Y89A (Homo sapiens, UniProt P08173, Y89A).
T2 construct: expressed in transfected cells
T2 sequence (P08173 1-479 Y89A): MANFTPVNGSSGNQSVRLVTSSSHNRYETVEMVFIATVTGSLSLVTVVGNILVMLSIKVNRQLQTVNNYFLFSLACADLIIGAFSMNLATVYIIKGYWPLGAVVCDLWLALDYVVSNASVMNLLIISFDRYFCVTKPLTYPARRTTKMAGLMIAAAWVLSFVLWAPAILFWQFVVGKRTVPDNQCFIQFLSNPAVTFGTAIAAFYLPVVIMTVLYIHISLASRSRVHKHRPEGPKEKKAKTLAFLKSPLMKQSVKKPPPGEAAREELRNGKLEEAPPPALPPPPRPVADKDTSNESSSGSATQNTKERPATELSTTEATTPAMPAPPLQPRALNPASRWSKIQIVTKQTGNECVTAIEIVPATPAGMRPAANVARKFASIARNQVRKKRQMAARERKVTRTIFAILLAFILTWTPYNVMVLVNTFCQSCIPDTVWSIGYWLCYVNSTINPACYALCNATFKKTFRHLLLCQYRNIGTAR
Briefly: [3H]-NMS radioligand dissociation binding, M4 mAChR Y89A. Particulars: for [3H]-NMS binding remaining vs Total Binding, MEAN: M4 Y89A mAChR; for effect on [3H]-NMS dissociation (in words): M4 mAChR Y89A mutant. The arrangement: [3H]-NMS binding remaining vs Total Binding, MEAN: unit not given here. The procedure:
as §1

A further test has as its target T3, M4 mAChR L190F (Homo sapiens, UniProt P08173, L190F).
T3 construct: expressed in transfected cells
T3 sequence (P08173 1-479 L190F): T2 sequence (P08173 1-479 Y89A) with A89Y, L190F
Briefly: [3H]-NMS radioligand dissociation binding, M4 mAChR L190F. The arrangement: unit not given here. As to the method: as §1

Setting [1] is: + 10uM LY2033 (Allosteric Ligand), Time 0 min (Total Binding).
Setting [2] is: + 10uM LY2033 (Allosteric Ligand), Time 30 min.
Where [3] appears, read: + 10uM LY2033 (Allosteric Ligand), Time 60 min.
Where [4] appears, read: + 10uM LY2033 (Allosteric Ligand), Time 90 min.
Where [5] appears, read: + 10uM LY2033 (Allosteric Ligand), Time 120 min.
Where [6] appears, read: + 10uM LY2033 (Allosteric Ligand), Time 180 min.
[7] abbreviates: + 10uM LY2033 (Allosteric Ligand), Time 300 min.

Changes are numbered by the printed parent chain. Read-outs that look alike come from different tables or passages of the source.

For the compound `COc1nc2sc(C(=O)NC3CC3)c(N)c2c(C)c1Cl` [LY2033298], the “[3H]-NMS binding remaining (0 min = 100), MEAN” value on M1 mAChR WT (10uM Atr + 30uM LY2033, 10 min) stood at 100.177; on M1 mAChR WT (10uM Atr + 30uM LY2033, 20 min) it was 95.7624; at M1 mAChR WT (10uM Atr + 30uM LY2033, 40 min), 97.3513; on M1 mAChR WT (10uM Atr + 30uM LY2033, 60 min), 85.8605; at M1 mAChR WT (10uM Atr + 30uM LY2033, 90 min) it was 73.8671; on M1 mAChR WT (10uM Atr + 30uM LY2033, 120 min) it was 62.858. For the same compound, the “[3H]-NMS binding remaining vs Total Binding, MEAN” value on M4 mAChR Y89A (setting [1]) amounted to 100.077; on M4 mAChR Y89A (setting [2]), 111.396; on M4 mAChR Y89A (setting [3]) it was 121.467; at M4 mAChR Y89A (setting [4]), 123.726; at M4 mAChR Y89A (setting [5]) it was 111.892; on M4 mAChR Y89A (setting [6]) it was 116.814. For the same compound, the “[3H]-NMS binding remaining vs Total Binding, MEAN” value at M4 mAChR Y89A (setting [7]) is 102.533; at M4 mAChR L190F (setting [1]), 100; at M4 mAChR L190F (setting [2]) it was 104.676; at M4 mAChR L190F (setting [3]) it was 101.661; at M4 mAChR L190F (setting [4]) it was 96.3234; at M4 mAChR L190F (setting [5]), 92.5099. The “[3H]-NMS binding remaining vs Total Binding, MEAN” value is 89.5439 at M4 mAChR L190F (setting [6]) and 70.7364 on M4 mAChR L190F (setting [7]). Moreover, the “effect on [3H]-NMS dissociation (in words)” value at M4 mAChR Y89A was “the same effect was observed”.
Turning to `C[N+](C)(C)CC#CCOC1=NOCC1` [iperoxo], the “[3H]-NMS binding remaining (0 min = 100), MEAN” value is 87.0617 on M1 mAChR WT (10uM Atr + 10 μM Iperoxo, 10 min); 66.0557 on M1 mAChR WT (10uM Atr + 10 μM Iperoxo, 20 min); 41.8921 on M1 mAChR WT (10uM Atr + 10 μM Iperoxo, 40 min); 27.7899 on M1 mAChR WT (10uM Atr + 10 μM Iperoxo, 60 min); 20.387 at M1 mAChR WT (10uM Atr + 10 μM Iperoxo, 90 min); 14.5109 at M1 mAChR WT (10uM Atr + 10 μM Iperoxo, 120 min).
On to `CCCCCCOc1nsnc1C1=CCCN(C)C1` [xanomeline], for which the “[3H]-NMS binding remaining vs Total Binding, MEAN” value on M4 mAChR Y89A (+100uM Xano, Time 30 min) was determined as 98.3579; at M4 mAChR Y89A (+100uM Xano, Time 60 min), 102.694; at M4 mAChR Y89A (+100uM Xano, Time 90 min), 104.852; at M4 mAChR Y89A (+100uM Xano, Time 120 min), 120.479; at M4 mAChR Y89A (+100uM Xano, Time 300 min), 77.2149; at M4 mAChR L190F (+100uM Xano, Time 90 min), 72.792. Also, the “[3H]-NMS binding remaining vs Total Binding, MEAN” value at M4 mAChR L190F (+100uM Xano, Time 180 min) came to 51.0423; at M4 mAChR L190F (+100uM Xano, Time 300 min), 24.2929. In addition, the “effect on [3H]-NMS dissociation (in words)” value on M4 mAChR Y89A was “improved ability”.

Source of the values: paper PMC10482975 (Nature Communications, 2023).
